One experiment has as its target T1, TBK1 (Homo sapiens, UniProt Q9UHD2).
T1 sequence (Q9UHD2 1-729): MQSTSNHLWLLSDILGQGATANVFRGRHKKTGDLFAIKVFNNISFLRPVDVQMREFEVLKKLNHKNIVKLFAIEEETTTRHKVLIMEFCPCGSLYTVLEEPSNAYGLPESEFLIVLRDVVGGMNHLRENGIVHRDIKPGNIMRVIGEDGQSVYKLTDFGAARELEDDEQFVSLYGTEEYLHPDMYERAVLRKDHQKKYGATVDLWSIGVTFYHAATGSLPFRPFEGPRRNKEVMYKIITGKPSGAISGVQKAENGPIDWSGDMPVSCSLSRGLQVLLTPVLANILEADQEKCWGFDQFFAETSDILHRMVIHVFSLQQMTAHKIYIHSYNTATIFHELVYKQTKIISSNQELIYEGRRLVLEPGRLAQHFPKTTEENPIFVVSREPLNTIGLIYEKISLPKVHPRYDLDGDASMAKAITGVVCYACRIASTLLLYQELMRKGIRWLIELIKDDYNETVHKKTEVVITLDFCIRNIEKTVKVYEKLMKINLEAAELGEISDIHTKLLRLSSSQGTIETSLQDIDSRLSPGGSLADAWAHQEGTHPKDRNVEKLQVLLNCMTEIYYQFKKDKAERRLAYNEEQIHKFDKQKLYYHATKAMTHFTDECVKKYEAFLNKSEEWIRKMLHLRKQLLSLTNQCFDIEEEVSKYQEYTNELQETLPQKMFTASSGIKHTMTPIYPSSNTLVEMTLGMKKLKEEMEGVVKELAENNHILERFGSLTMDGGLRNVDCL
The experiment is described as follows: TBK Biochemical Assay. To be noted: read-out: TBK1 IC50. The method, boiled down:
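Caliper LabChip mobility-shift readout of substrate and product after 90 min of TBK1 reaction at 25° C and stop-buffer addition. Compounds tested in 1:4 serial dilution over 10 points from 30 uM final at 1% DMSO; staurosporine 10 uM final defines full inhibition.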

The target of the next experiment is T2, IKKε (Homo sapiens, UniProt Q14164).
T2 sequence (Q14164 1-716): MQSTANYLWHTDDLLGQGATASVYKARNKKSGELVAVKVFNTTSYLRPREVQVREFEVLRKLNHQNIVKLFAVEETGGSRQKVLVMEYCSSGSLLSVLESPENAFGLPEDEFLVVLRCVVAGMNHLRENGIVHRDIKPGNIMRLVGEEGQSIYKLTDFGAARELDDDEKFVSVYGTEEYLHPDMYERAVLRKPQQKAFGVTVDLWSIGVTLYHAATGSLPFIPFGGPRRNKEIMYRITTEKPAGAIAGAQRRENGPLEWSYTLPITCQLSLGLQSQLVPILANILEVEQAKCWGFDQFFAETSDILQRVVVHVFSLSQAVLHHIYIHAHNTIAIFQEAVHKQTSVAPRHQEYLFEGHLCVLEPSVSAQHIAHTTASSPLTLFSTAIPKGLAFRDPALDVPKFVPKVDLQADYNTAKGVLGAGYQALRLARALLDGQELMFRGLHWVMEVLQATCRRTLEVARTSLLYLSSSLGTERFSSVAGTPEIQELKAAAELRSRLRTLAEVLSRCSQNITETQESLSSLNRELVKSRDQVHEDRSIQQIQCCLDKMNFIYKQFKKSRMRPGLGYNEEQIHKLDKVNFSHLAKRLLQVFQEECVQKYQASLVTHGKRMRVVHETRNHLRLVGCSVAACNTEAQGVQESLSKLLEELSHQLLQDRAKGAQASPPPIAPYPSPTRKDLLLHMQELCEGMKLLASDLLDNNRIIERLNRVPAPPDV
As to the kind of experiment: IKKe Biochemical Assay. To be noted: read-out: IKKε IC50. The method, boiled down:
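Activity was measured as mobility-shift separation of phosphorylated from unphosphorylated substrate on a LabChip EZ Reader. Compound was titrated from 30 uM final in 10 points, 1:4 steps, with 1% DMSO, and enzyme plus substrate reacted 90 min at 25° C before stop buffer. Control wells held 10 uM staurosporine.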

Experiment [1] concerns phosphorylation of the IRF-3 protein in MDA-MB-468 cells. The experiment is described as follows: pIRF3 immunocytochemistry cell based assay. The settings on record: MDA-MB-468 cells, Poly(I:C) stimulation, read-out: pIRF3 IC50. The protocol:
The purpose of the pIRF3 immunocytochemistry cell based assay was to identify small molecules which modulates TBK/IKKe kinase activity through on target substrate phosphorylation of the IRF-3 protein. On the first day of the experiment, MDA-MB-468 cells were plated in 384 well, black, clear-bottom, Poly D lysine coated plates at a density of 5000 cells/well in 45 ul of complete DMEM and allowed to adhere overnight. On the second day compounds were added to cells at a starting concentration of 10 uM with a serial dilution of 3-fold for a total of 10 points. The cells were incubated for 1 hr at 37° C. Cells were then stimulated with Poly(I:C) at a final concentration of 10 ug/ml, and were incubated for 2 hr at 37° C. Following the incubation, media was removed from the wells and the cells were fixed with 4% PFA for 15 min at RT. Cells were washed at least 3 times with PBS, and then permeabilized with ice-cold methanol for 10 min at RT. The washing step was repeated and the cells were then blocked using 10% goat serum/1% BSA, made up in PBS and allowed to incubate at RT for 1 hr. The cells were washed again and then treated with an anti-pIRF3 antibody at 4° C. overnight (1:250 dilution of Abcam ab76493 in PBS containing 1% BSA). On the third day the primary antibody was washed off and pIRF3 was detected by adding the secondary antibody conjugated to AlexaFluor488 (1:200 dilution of secondary antibody in PBS containing 1% BSA) for 1 hr at RT. Cells were washed and then counterstained with PI/RNase staining buffer for 15 min at RT and read on the Acumen Explorer laser scanning cytometer. The percentage of phosphorylation of the IRF-3 protein was calculated using the following algorithm, a modified version of the mean half width intensity (pIRF3 staining)/(PI staining or # of cells)×100%). IC50 curves were generated using the Genedata software.

This is an account of results in patent US10428080B2, “TBK/IKK inhibitor compounds and uses thereof” (Merck Patent GmbH, priority 2015, dated 2019).

Where a name gives a salt, the structure may show the parent alone. Read-outs that look alike come from different tables or passages of the source.

In the case of `COc1cc(C(=O)N(C)C)ccc1-c1cc2nccc(-c3ccc(OC4CCOC[C@@H]4F)c(C#N)c3)c2o1` (mixture of isomers) [Compound 42, 4-{7-[3-Cyano-4-((S)-3-fluoro-tetrahydro-pyran-4-yloxy)-phenyl]-furo[3,2-b]pyridin-2-yl}-3-methoxy-N,N-dimethyl-benzamide], the IC50 (on TBK1; on IKKε; in experiment [1] (Homo sapiens)) was less than 100 nM each time.

As for `N#Cc1cc(-c2ccnc3cc(-c4ccc(C(=O)NC5CNCCC5F)cc4)oc23)ccc1OC1CCOCC1` (racemic) [Compound 131, 4-{7-[3-Cyano-4-(tetrahydro-pyran-4-yloxy)-phenyl]-furo[3,2-b]pyridin-2-yl}-N-(4-fluoro-piperidin-3-yl)-benzamide], the IC50 was less than 100 nM at TBK1, less than 100 nM at IKKε and 100 to 1000 nM in experiment [1] (Homo sapiens).

With `COc1cc(C(=O)N[C@H]2[C@@H]3C[C@H]2CN(C)C3)ccc1-c1cc2nccc(-c3ccc(OC4CCOCC4)c(C#N)c3)c2o1` (single isomer, unassigned) [Compound 365], the IC50 is less than 100 nM on TBK1, less than 100 nM at IKKε and 100 to 1000 nM in experiment [1] (Homo sapiens).

Take `COc1cc(C(=O)N[C@H]2[C@@H]3C[C@H]2CN(C)C3)ccc1-c1cc2nccc(-c3ccc(OC4CCOCC4)c(C#N)c3)c2o1` (single isomer, unassigned) [Compound 366]: the half-maximal inhibitory concentration (IC50) on TBK1 is less than 100 nM; on IKKε, less than 100 nM; in experiment [1], 100 to 1000 nM.

`COc1cc(C(=O)N[C@H]2C[C@H](CO)N(C)C2)ccc1-c1cc2nccc(-c3ccc(OC4CCOCC4)c(C#N)c3)c2o1` (stereo in doubt) [Compound 350, 4-[7-[3-cyano-4-(oxan-4-yloxy)phenyl]furo[3,2-b]pyridin-2-yl]-N-[(3S,5R)-5-(hydroxymethyl)-1-methylpyrrolidin-3-yl]-3-methoxybenzamide]: the IC50 on TBK1 is less than 100 nM; on IKKε, less than 100 nM; in experiment [1] (Homo sapiens) it was 100 to 1000 nM.

Turning to `COc1cc(C(=O)N2CCCCC2)ncc1-c1cc2nccc(-c3ccc(N4CCC(F)C4)c(C#N)c3)c2o1` (stereo in doubt) [Compound 384, 2-((S)-3-Fluoro-pyrrolidin-1-yl)-5-{2-[4-methoxy-6-(piperidine-1-carbonyl)-pyridin-3-yl]-furo[3,2-b]pyridin-7-yl}-benzonitrile], the IC50 (at TBK1; on IKKε; in experiment [1] (Homo sapiens)) was less than 100 nM in each case.

`COc1cc(C(=O)N2CCCCC2)ncc1-c1cc2nccc(-c3ccc(N4CC[C@@H](F)C4)c(C#N)c3)c2o1` (stereo in doubt) [Compound 385]: the concentration for half-maximal inhibition (IC50) (at TBK1; on IKKε; in experiment [1]) was less than 100 nM each time.

Take `COc1cc(C(=O)N(C)C)ncc1-c1cc2nccc(-c3ccc(N4CCC(F)C4)c(C#N)c3)c2o1` (stereo in doubt) [Compound 389, 5-{7-[3-Cyano-4-((S)-3-fluoro-pyrrolidin-1-yl)-phenyl]-furo[3,2-b]pyridin-2-yl}-4-methoxy-pyridine-2-carboxylic acid dimethylamide]: the figures for the half-inhibitory concentration (IC50) (on TBK1; at IKKε; in experiment [1] (Homo sapiens)) were less than 100 nM, less than 100 nM and 100 to 1000 nM, respectively.

Turning to `COc1cc(C(=O)N(C)C)ncc1-c1cc2nccc(-c3ccc(N4CCC(F)C4)c(C#N)c3)c2o1` (stereo in doubt) [Compound 390, 5-{7-[3-Cyano-4-((R)-3-fluoro-pyrrolidin-1-yl)-phenyl]-fluro[3,2-b]pyridin-2-yl}-4-methoxy-pyridine-2-carboxylic acid dimethylamide], the results for the IC50 (on TBK1; on IKKε; in experiment [1] (Homo sapiens)) were less than 100 nM, less than 100 nM and 100 to 1000 nM, respectively.

Take `COc1cc(C(=O)N(C)C)ccc1-c1cc2nccc(-c3ccc(C(C)(C)N4CCOCC4)c(C#N)c3)c2o1` [Compound 291, 4-(7-[3-cyano-4-[2-(morpholin-4-yl)propan-2-yl]phenyl]furo[3,2-b]pyridin-2-yl)-3-methoxy-N,N-dimethylbenzamide hydrochloride]: the half-maximal inhibitory concentration (IC50) in experiment [1] (Homo sapiens) was more than 5000 nM.

For `COc1cc(C(=O)N(C)C)cnc1-c1cc2ncc(OC)c(-c3ccc(OC4CCOCC4)c(C#N)c3)c2o1` [Compound 339, 6-[7-[3-cyano-4-(oxan-4-yloxy)phenyl]-6-methoxyfuro[3,2-b]pyridin-2-yl]-5-methoxy-N,N-dimethylpyridine-3-carboxamide], the values for the half-maximal inhibitory concentration (IC50) (at TBK1; in experiment [1] (Homo sapiens)) were 100 to 1000 nM and less than 100 nM, respectively.

For `COc1cc(C(=O)N2CC3COCC3C2)ncc1-c1cc2nccc(-c3ccc(NC4CCOCC4)c(C#N)c3)c2o1` (stereo not shown) [Compound 421, 5-[2-[6-([hexahydro-1H-furo[3,4-c]pyrrol-5-yl]carbonyl)-4-methoxypyridin-3-yl]furo[3,2-b]pyridin-7-yl]-2-[(oxan-4-yl)amino]benzonitrile], the IC50 at TBK1 and on IKKε was less than 100 nM in each case.

Turning to `COc1cc(C(=O)N2CC3CN(C)CC3C2)ncc1-c1cc2nccc(-c3ccc(N4CC[C@@H](F)C4)c(C#N)c3)c2o1` (stereo partly drawn) [Compound 453, 2-[(3R)-3-fluoropyrrolidin-1-yl]-5-[2-[4-methoxy-6-([5-methyl-octahydropyrrolo[3,4-c]pyrrol-2-yl]carbonyl)pyridin-3-yl]furo[3,2-b]pyridin-7-yl]benzonitrile], the half-maximal inhibitory concentration (IC50) on TBK1 and on IKKε was less than 100 nM each time.

In the case of `COc1cc(C(=O)NC2C3COCC32)ncc1-c1cc2nccc(-c3ccc(N4CC[C@@H](F)C4)c(C#N)c3)c2o1` (stereo partly drawn) [Compound 469, 5-(7-[3-cyano-4-[(3R)-3-fluoropyrrolidin-1-yl]phenyl]furo[3,2-b]pyridin-2-yl)-4-methoxy-N-[3-oxabicyclo[3.1.0]hexan-6-yl]pyridine-2-carboxamide], the IC50 at TBK1 and on IKKε was less than 100 nM each time.

As for `COc1cc(C(=O)NC2CC3CCC2CC3)ccc1-c1cc2nccc(-c3ccc(OC4CCOCC4)c(C#N)c3)c2o1` (stereo not shown) [Compound 495], the half-inhibitory concentration (IC50) was 100 to 1000 nM at TBK1 and less than 100 nM on IKKε.

As to `COc1cc(C(=O)NC2CC3CCC2C3)ccc1-c1cc2nccc(-c3ccc(OC4CCOCC4)c(C#N)c3)c2o1` (stereo not shown) [Compound 496], the 50% inhibitory concentration (IC50) on TBK1 and on IKKε was less than 100 nM each time.
